From ChEMBL document CHEMBL1201862, “PubChem BioAssay data set” (2004)
Values belong to the molecule of their own block, whether it stands above or below them. Activity calls are given as the source filed them.

Experiments:
[1] = target: T1, Cytochrome P450 1A2 (Homo sapiens, UniProt P05177);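 note: PubChem cytochrome P450 panel assay, CYP1A2 panel member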
T1 sequence (P05177 whole entry): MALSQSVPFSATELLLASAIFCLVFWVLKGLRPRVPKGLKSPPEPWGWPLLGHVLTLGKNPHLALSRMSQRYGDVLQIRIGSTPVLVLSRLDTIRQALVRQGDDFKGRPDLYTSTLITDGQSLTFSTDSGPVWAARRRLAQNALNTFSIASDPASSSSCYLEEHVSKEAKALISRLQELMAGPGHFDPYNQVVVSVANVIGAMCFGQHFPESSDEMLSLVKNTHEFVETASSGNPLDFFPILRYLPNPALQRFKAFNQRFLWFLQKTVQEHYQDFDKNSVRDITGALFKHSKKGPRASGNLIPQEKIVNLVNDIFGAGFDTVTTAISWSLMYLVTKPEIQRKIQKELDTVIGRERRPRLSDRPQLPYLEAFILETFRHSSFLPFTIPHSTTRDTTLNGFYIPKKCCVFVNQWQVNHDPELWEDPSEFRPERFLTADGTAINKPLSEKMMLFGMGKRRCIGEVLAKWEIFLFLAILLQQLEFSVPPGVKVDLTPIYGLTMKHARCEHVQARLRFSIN

[2] = target: Cytochrome P450 2C19 (Homo sapiens, UniProt P33261); assay: Cytochrome panel assay with activity outcomes. Panel member name: p450-cyp2c19 Compounds with AC50 equal or less than 10 uM are considered active; assay type: functional
[3] = target: Cytochrome P450 2C9 (Homo sapiens, UniProt P11712)
[4] = target: Cytochrome P450 2D6 (Homo sapiens, UniProt P10635);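 note: CYP2D6 member of a cytochrome P450 panel assay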
[5] = target: T2, Apoptotic protease-activating factor 1 (Homo sapiens, UniProt O14727); assay: activation of Apaf-1 mediated apoptosis – fluorescent, uHTS hits, dose response (AID 588554); assay type: functional
T2 sequence (O14727 whole entry): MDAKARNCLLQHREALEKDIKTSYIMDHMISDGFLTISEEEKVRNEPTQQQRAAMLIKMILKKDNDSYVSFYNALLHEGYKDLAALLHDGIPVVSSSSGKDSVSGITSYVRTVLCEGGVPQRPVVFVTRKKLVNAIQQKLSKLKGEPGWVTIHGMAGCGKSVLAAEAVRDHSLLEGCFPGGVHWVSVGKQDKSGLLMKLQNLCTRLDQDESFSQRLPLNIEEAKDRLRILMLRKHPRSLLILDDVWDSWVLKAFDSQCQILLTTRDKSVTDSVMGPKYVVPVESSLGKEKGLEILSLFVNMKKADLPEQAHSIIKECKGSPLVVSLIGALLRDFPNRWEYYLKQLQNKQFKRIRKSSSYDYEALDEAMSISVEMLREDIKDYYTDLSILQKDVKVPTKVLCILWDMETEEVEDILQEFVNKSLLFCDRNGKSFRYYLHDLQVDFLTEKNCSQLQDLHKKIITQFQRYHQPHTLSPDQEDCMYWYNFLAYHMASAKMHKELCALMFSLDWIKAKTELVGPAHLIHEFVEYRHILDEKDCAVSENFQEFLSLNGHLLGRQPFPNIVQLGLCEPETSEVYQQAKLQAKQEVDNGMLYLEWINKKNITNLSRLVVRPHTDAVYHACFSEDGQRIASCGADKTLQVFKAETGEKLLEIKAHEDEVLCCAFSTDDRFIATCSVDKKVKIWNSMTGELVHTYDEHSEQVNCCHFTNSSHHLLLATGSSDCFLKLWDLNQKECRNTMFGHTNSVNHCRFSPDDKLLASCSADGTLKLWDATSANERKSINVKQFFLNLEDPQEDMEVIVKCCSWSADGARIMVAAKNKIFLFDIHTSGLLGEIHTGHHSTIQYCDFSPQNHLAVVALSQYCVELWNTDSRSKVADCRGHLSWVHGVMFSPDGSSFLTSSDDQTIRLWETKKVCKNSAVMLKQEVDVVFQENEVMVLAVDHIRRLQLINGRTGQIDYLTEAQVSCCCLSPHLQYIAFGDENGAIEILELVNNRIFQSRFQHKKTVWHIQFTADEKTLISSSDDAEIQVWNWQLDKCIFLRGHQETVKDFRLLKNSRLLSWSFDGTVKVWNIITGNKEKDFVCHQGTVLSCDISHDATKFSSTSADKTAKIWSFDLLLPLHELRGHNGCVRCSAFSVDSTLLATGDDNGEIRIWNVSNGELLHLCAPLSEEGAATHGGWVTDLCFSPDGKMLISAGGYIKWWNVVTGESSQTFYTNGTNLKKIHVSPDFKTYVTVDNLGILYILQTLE

[6] = target: T3, Intestinal-type alkaline phosphatase (Homo sapiens, UniProt P09923); assay: human intestinal alkaline phosphatase activators, dose response, biochemical, luminescence, uHTS hits (AID 463120); assay type: functional
[7] = target: Intestinal-type alkaline phosphatase (Mus musculus, UniProt P24822); assay: PubChem AID 488875; assay type: functional
[8] = target: T3, Intestinal-type alkaline phosphatase; assay: activation of human intestinal alkaline phosphatase – biochemical, luminescent, uHTS hits, set 2, dose response (AID 488817); assay type: functional;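 note: potency of activators that raise enzyme activity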
[9] = target: T4, Alkaline phosphatase, tissue-nonspecific isozyme (Homo sapiens, UniProt P05186); assay: activation of tissue-nonspecific alkaline phosphatase – biochemical, TNAP isozyme, human IAP uHTS hits, selectivity assay for human IAP activator project, dose response (AID 488886); assay type: functional;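 note: potency of compounds raising TNAP activity as a selectivity check on IAP activators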
T4 sequence (P05186 whole entry): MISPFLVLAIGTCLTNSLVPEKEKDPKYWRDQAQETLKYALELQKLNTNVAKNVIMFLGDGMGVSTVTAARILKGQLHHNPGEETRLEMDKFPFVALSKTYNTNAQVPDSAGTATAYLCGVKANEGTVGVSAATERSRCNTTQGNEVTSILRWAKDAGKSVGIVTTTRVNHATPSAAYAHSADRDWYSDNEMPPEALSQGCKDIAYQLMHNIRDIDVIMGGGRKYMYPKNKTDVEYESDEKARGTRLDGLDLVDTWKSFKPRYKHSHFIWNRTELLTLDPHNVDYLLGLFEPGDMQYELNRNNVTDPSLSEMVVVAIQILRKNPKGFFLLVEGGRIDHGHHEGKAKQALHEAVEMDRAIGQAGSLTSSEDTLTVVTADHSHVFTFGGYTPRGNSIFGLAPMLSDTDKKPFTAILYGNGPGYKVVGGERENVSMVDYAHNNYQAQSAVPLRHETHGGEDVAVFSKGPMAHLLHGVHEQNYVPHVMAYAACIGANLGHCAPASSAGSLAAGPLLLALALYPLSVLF

[10] = target: T5, Carboxy-terminal domain RNA polymerase II polypeptide A small phosphatase 1 (Homo sapiens, UniProt Q9GZU7); assay: CTDSP1 inhibitors, concentration-response, biochemical, absorbance readout, ultra-high-throughput screen actives (AID 540297); assay type: functional
T5 sequence (Q9GZU7 whole entry): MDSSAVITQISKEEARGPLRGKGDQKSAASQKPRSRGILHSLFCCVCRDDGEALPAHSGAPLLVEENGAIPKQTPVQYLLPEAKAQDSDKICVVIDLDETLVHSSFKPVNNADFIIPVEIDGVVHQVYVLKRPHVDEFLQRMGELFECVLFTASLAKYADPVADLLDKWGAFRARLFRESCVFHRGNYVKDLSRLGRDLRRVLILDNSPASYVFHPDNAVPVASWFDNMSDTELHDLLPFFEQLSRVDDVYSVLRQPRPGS

[11] = target: T6, Small ubiquitin-related modifier 1 (Homo sapiens, UniProt P63165); assay: SUMO1 protein interaction blockers, potency – biochemical, fluorescence polarization, uHTS hits, dose response (AID 624382); assay type: functional; conditions: read-out: IC50_Mean
[12] = target: G-protein coupled receptor 35 (Homo sapiens, UniProt Q9HC97); assay: inhibition of zaprinast-stimulated GPR35 beta-arrestin translocation – imaging, U2OS, beta-arrestin-GFP, zaprinast agonist, primary screen (AID 2058); assay type: functional;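 note: antagonist potency meaning inhibition of agonist-induced arrestin redistribution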
[13] = target: T6, Small ubiquitin-related modifier 1; assay: SUMO1 protein-protein binding blockers, potency – biochemical, FRET, dose response (AID 624383); assay type: functional; conditions: read-out: IC50_Mean
[14] = target: T7, Voltage-gated N-type calcium channel alpha-1B subunit/Amyloid beta A4 precursor protein-binding family A member 1 (Homo sapiens, UniProt Q00975+Q02410); assay type: protein assay
[15] = target: T8, Beta-adrenergic receptor kinase 1 (Homo sapiens, UniProt P25098); assay: blockers of aptamer binding to GRK2 – biochemical, flow cytometry beads, FAM-aptamer, powder set 1, dose response (AID 588720)
T8 sequence (P25098 whole entry): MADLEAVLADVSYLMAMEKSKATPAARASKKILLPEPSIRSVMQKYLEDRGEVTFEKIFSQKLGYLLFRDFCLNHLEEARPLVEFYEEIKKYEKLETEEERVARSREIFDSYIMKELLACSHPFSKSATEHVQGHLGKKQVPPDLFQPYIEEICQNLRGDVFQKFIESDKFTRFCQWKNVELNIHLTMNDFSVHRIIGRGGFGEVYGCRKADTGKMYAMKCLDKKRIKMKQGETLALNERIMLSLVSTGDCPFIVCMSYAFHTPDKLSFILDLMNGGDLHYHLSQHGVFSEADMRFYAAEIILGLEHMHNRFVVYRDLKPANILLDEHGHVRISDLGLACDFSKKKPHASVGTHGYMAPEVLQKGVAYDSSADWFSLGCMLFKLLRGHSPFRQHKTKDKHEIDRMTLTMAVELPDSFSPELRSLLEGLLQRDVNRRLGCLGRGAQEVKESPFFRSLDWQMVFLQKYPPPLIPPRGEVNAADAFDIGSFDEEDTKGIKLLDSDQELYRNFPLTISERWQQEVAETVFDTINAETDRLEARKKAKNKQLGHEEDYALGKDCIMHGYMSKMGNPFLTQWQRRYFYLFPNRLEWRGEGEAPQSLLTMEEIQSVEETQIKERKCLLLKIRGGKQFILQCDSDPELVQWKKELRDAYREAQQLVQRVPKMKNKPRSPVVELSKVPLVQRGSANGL

[16] = target: T8, Beta-adrenergic receptor kinase 1; assay: Second cherry pick EC50 of compounds blocking aptamer binding to bead-bound GRK2 by flow cytometry, biochemical (AID 504815)
[17] = target: T7, Voltage-gated N-type calcium channel alpha-1B subunit/Amyloid beta A4 precursor protein-binding family A member 1; assay type: protein assay; remark: listed apart in the source
[18] = viability loss of HMLE_sh_eGFP cells – cell-based, luminescence, counter-screen for HMLE_sh_ECad selective toxicity project, dose response (AID 463074); assay type: functional, Homo sapiens;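 note: HMLE human mammary epithelial cells expressing control shRNA against eGFP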
[19] = Luminescence Cell-Based Dose Retest to Confirm Inhibitors of Cancer Stem Cells. [Related pubchem assays (depositor defined):AID2717, AID2721]; assay type: functional; conditions: Homo sapiens
[20] = system: Escherichia coli; assay: microbe, parasite or virus in culture
[21] = target: T9, Dual specificity protein phosphatase 6 (Rattus norvegicus, UniProt Q64346)
T9 sequence (Q64346 whole entry): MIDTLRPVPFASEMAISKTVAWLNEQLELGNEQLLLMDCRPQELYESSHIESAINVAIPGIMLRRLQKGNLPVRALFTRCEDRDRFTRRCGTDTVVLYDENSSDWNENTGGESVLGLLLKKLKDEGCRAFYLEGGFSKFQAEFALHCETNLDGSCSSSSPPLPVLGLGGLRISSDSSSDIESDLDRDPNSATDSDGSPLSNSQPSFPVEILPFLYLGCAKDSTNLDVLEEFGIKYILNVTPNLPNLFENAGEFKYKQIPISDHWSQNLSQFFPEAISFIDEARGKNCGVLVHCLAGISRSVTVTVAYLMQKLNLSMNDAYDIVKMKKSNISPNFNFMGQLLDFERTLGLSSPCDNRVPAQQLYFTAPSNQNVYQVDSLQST

[22] = target: T9, Dual specificity protein phosphatase 6; assay type: functional
[23] = target: Glyceraldehyde-3-phosphate dehydrogenase (Homo sapiens, UniProt P04406)
[24] = target: T10, Tyrosine-protein phosphatase non-receptor type 7 (Homo sapiens, UniProt P35236); assay type: functional
T10 sequence (P35236 whole entry): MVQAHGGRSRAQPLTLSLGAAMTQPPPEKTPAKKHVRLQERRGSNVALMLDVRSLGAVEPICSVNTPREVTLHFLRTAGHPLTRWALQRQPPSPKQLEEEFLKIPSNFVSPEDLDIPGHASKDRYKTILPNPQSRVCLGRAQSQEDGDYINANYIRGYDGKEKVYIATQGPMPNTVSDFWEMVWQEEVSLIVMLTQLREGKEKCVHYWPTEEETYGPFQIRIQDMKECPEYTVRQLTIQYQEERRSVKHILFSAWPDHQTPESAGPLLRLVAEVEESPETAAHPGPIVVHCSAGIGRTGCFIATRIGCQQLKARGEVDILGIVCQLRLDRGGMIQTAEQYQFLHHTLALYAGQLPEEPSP

T3 sequence (P09923 whole entry): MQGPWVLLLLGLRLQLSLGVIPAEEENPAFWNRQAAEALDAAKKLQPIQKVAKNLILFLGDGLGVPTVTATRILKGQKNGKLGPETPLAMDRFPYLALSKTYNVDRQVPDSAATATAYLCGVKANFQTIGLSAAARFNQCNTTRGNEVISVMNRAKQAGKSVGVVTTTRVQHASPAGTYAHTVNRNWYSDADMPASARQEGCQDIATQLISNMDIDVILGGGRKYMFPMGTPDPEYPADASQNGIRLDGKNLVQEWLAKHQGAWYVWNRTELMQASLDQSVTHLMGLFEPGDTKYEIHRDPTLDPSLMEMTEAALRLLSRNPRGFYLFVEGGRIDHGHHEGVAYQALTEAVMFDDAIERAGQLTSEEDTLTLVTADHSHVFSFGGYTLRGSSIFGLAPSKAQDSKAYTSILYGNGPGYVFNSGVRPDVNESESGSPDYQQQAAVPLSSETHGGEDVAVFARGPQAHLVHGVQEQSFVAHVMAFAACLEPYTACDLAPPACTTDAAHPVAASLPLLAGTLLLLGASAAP
T7 sequence (Q00975 whole entry): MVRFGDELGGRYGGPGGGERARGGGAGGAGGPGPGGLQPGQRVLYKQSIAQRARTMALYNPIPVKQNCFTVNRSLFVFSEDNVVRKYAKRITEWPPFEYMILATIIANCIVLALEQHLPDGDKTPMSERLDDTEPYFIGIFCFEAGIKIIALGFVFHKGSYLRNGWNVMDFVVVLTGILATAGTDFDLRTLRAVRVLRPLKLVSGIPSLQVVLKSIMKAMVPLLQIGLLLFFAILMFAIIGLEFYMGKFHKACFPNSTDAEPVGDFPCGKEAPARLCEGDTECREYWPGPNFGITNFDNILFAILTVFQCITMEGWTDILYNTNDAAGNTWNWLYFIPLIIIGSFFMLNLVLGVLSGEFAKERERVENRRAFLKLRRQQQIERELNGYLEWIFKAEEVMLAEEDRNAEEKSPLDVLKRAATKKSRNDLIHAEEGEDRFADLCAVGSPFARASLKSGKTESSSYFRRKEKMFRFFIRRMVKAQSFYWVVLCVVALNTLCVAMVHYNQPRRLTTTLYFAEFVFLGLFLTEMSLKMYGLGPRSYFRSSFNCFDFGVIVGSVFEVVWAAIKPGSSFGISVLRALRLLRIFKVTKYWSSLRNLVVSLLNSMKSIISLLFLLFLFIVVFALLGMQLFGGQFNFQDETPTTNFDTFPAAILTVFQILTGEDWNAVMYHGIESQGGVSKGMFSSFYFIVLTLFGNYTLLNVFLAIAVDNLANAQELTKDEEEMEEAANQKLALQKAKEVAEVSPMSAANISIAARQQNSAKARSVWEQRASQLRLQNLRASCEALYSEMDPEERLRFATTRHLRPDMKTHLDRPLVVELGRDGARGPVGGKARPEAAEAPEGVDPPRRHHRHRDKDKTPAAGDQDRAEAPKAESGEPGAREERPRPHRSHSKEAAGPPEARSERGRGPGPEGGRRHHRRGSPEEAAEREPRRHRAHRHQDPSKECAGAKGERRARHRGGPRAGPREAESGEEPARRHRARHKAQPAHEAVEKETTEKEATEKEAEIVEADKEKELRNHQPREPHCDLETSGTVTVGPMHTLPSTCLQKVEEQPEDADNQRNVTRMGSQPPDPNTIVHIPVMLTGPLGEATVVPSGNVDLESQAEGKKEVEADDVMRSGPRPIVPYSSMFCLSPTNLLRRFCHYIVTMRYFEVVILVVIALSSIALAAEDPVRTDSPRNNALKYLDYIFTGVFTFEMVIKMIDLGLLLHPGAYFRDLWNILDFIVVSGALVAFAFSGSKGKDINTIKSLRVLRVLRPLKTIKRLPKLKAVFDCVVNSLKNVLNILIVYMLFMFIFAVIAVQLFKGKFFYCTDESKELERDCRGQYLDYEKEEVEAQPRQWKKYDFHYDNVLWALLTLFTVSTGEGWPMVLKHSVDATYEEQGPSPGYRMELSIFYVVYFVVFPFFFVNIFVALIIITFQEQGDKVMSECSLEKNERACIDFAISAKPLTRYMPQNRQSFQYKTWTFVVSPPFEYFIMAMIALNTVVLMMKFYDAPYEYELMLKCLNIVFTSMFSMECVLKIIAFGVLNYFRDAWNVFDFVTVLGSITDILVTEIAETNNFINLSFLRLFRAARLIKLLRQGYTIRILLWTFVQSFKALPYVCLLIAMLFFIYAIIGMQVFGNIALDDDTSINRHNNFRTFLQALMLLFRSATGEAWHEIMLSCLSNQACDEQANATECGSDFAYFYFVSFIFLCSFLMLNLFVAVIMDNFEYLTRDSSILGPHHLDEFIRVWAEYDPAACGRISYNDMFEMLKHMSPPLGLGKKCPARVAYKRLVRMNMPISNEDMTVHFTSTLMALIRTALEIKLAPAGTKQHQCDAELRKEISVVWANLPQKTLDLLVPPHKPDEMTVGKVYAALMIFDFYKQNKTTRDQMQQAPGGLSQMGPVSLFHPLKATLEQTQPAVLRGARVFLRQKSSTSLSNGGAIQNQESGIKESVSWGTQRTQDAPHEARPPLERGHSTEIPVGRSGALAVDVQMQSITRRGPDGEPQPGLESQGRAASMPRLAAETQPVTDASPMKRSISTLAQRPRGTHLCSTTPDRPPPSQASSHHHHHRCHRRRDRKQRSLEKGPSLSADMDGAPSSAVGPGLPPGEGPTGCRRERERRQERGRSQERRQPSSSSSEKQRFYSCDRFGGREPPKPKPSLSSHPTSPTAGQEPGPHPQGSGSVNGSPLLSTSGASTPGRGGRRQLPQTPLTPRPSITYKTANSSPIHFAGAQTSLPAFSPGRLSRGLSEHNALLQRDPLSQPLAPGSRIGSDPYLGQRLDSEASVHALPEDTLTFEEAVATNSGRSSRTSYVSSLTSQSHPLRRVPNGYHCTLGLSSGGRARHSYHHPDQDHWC
T7 sequence (Q02410 whole entry): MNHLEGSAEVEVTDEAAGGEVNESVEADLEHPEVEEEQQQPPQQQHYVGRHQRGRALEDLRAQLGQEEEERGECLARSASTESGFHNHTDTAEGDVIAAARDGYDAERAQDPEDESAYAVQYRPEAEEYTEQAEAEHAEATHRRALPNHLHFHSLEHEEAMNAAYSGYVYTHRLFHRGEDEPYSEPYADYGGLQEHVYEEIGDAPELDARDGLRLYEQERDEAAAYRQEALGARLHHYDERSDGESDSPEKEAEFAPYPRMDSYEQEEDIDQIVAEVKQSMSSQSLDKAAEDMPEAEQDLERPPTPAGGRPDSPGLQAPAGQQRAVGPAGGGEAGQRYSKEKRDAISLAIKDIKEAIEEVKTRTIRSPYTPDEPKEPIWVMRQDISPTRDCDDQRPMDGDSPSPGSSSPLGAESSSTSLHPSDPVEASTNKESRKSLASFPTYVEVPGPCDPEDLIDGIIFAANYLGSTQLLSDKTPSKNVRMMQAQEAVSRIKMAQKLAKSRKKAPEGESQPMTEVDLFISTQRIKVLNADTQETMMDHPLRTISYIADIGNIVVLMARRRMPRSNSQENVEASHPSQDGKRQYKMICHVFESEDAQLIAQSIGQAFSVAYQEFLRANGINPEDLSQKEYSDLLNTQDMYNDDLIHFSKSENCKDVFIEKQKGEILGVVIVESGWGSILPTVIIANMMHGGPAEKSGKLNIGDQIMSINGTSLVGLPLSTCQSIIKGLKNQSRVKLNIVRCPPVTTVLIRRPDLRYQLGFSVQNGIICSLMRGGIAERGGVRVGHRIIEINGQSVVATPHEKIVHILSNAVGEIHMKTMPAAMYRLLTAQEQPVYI
T6 sequence (P63165 whole entry): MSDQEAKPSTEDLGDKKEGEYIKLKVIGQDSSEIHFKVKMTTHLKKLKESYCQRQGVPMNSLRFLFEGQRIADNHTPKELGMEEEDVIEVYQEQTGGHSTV
Cytochrome P450 2D6, sequence (P10635 whole entry): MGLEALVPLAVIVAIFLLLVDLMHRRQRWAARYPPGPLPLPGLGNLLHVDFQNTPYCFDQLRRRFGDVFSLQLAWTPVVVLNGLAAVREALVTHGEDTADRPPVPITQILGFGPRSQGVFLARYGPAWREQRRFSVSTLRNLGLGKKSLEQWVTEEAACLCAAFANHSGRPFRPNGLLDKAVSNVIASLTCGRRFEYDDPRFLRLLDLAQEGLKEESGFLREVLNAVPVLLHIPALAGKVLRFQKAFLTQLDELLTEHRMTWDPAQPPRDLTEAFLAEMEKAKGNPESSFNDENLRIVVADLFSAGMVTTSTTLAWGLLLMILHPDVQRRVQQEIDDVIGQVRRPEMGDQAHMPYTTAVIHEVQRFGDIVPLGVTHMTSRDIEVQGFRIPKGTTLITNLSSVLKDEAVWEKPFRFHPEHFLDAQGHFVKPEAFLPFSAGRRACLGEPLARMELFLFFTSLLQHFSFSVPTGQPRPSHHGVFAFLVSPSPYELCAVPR
Cytochrome P450 2C9, sequence (P11712 whole entry): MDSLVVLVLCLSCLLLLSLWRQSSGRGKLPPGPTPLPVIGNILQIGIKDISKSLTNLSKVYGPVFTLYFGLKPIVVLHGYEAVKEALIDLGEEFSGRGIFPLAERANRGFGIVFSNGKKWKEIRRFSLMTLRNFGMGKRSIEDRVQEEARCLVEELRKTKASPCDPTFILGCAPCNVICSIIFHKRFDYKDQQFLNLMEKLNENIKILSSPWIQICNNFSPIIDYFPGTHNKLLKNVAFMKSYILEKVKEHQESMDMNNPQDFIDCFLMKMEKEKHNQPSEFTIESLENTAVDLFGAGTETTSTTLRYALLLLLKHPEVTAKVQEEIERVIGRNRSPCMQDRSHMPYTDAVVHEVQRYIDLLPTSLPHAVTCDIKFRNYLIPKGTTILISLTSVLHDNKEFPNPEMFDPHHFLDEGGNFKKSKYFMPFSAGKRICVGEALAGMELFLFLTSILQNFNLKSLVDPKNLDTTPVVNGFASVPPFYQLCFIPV

AC50 [1]: inconclusive
AC50 [2]: inconclusive
AC50 [3]: inconclusive
AC50 [4]: inconclusive
Structure (SMILES): O=C(c1cc(C(F)(F)F)cc(C(F)(F)F)c1)N1CCC2(CC1)CN(c1ncccn1)C2

EC50 [5]: 10.9 µM (active)
Structure (SMILES): Cc1cc(C)n(CC(C)C(=O)O)n1 (centres undefined)

EC50 [6]: 28 µM (active)
EC50 [7]: > 100 µM (inactive)
EC50 [8]: 28.4 µM (active)
EC50 [9]: 36.4 µM (active)
Structure (SMILES): CC(C)(C)NC(=O)C(=O)NNC(=O)COc1ccccc1

The next lines start with the molecule.

Structure (SMILES): NS(=O)(=O)c1ccc(CCNC(=O)CCS(=O)(=O)c2ccc(Br)cc2)cc1
IC50 [10]: 4.17 µM (active)
IC50 [11]: > 66.6 µM (inactive)
IC50 [12]: 2.23 µM (active)
IC50 [13]: 9.08 µM (active)
IC50 [14]: > 50 µM (inactive)
EC50 [15]: 1.21 µM (active)
EC50 [16]: 5.2 µM (active)
IC50 [17]: 40.9 µM (active)

Structure (SMILES): O=C(CCS(=O)(=O)c1ccccc1)Nc1nc(-c2ccc(F)cc2)cs1
AC50 [18]: 143 µM (active)
AC50 [19]: 10.4 µM (active)

Structure (SMILES): Cc1ccc(-n2nnnc2SCC(=O)Nc2ccc3c(c2)OCCO3)cc1C
AC50 [20]: 30.9 µM (active)

Structure (SMILES): O=c1nc(NCCc2ccccc2)[nH]c(=O)n1-c1ccccc1
IC50 [21]: > 100 µM (inactive)
IC50 [22]: > 100 µM (inactive)
IC50 [23]: > 100 µM (not active)
IC50 [24]: > 100 µM (not active)
